# Assay results published in patent publication US6660721B2, “Anti-HCV nucleoside derivatives” (Hoffmann-la Roche Inc., priority 2001, dated 2003).
# Read-outs that look alike come from different tables or passages of the source.
# System: HCV replicon RNA in human hepatoma Huh7 cells (cell line 2209-23)
# Assay: HCV Replicon assay (Renilla luciferase reporter, 2209-23 cells)
# Type: cell-based, Hepatitis C virus
# Conditions: for IC50: Hepatitis C virus, Huh-7, 72 h, read-out: IC50 (HCV Replicon assay)
smiles,measurement,setting,value
Nc1ccn([C@@H]2O[C@H](CO)[C@@H](O)[C@H]2F)c(=O)n1 [2′-Deoxy-2′-fluorocytidine],IC50,"Renilla luciferase HCV replicon cells 2209-23, three days incubation",0.74 µM
Nc1nc2c(ncn2[C@@H]2O[C@H](CO)[C@@H](O)[C@H]2F)c(=O)[nH]1 [2′-Deoxy-2′-fluoroguanosine],% reduction of replicon level at fixed concentration,"@ 20 μM, Renilla luciferase HCV replicon cells 2209-23",62% @ 20
"Nc1nc(N)c2ncn([C@@H]3O[C@H](CO)[C@@H](O)[C@H]3F)c2n1 [9-(2-Deoxy-2-fluoro-β-D-ribofuranosyl)-2,6-diaminopurine]",IC50,,10 µM
